Active and inactive are the calls of the source. No cut-off for these calls is given here.
Columns and labels:
MCF7 [1] = test: Cytotoxicity against human MCF7 cells assessed as decrease in cell viability after 5 days by celltiterGlo assay; assay type: functional, cell-based; conditions: MCF7, 120 h
MCF7 [2] = test: Decrease in estrogen receptor alpha level in human MCF7 cells after 4 hrs by in-cell western assay; assay type: functional, cell-based; conditions: MCF7, 4 h
MCF7 [3] = test: Decrease in estrogen receptor alpha level in human MCF7 cells 2 to 10 uM after 4 hrs by in-cell western assay; assay type: functional; conditions: MCF7, 4 h
[4] = Fraction unbound in CD-1 mouse plasma by equilibrium dialysis; assay type: ADME, cell-free
Rattus norvegicus = test: Decrease in uterine wet weight of CD-IGS rat at 1 mg/kg, po qd followed 15 mins later administration of 0.1 mg/kg, po 17alpha-ethynylestradiol for 3 consecutive days; assay type: functional
[5] = AUC in CD-1 mouse at 10 mg/kg, po; assay type: ADME, organism-based; conditions: in vivo
MCF7 [6] = test: Decrease in estrogen receptor alpha level in human MCF7 cells after 4 hrs by in-cell western assay relative to fulvestrant; assay type: functional; conditions: MCF7, 4 h
MCF7 [7] = test: Antitumor activity against human MCF7 cells xenografted in tamoxifen-resistant nu/nu mouse model implanted with 17beta-estradiol pellets assessed as tumor regression at 30 mg/kg qd for 4 weeks; assay type: functional, organism-based

| EC50 (MCF7 [2]) [nM] | fraction unbound [4] | AUC [5] [ng·h/mL] | Structure (SMILES) | IC50 (MCF7 [1]) [nM] | Emax (MCF7 [3]) [%] | inhibition (INH) (Rattus norvegicus) [%] | Emax (MCF7 [6]) [%] | Activity (MCF7 [7]) |
| --- | --- | --- | --- | --- | --- | --- | --- | --- |
| 353 | – | – | CC/C(=C(/c1ccc(/C=C/C(=O)O)cc1)c1ccc2[nH]nc(C)c2c1)c1ccccc1 | > 1000 | 86 | – | – | – |
| 0.4 | 0.003 | 14600 | O=C(O)/C=C/c1ccc(/C(=C(\c2ccccc2)C2CCC2)c2ccc3[nH]nc(F)c3c2)cc1 | 1.4 | – | 81 | 90 | – |
| 0.5 | – | 500 | CC/C(=C(/c1ccc(/C=C/C(=O)O)cc1)c1ccc2[nH]ncc2c1C#N)c1ccccc1 | 1.5 | – | – | 91 | – |
| 0.4 | 0.003 | 11100 | O=C(O)/C=C/c1ccc(/C(=C(\c2ccccc2Cl)C2CCC2)c2ccc3[nH]nc(F)c3c2)cc1 | 1.1 | – | 82 | 90 | – |
| 102 | – | – | CC/C(=C(/c1ccc(/C=C/C(=O)O)cc1)c1ccc2[nH]nc(Cl)c2c1)c1ccccc1 | 284 | 89 | – | – | – |
| 0.8 | 0.001 | 20500 | COc1ccc(/C(=C(\c2ccc(/C=C/C(=O)O)cc2)c2ccc3[nH]nc(F)c3c2)C2CCC2)c(Cl)c1 | 2.4 | – | 90 | 93 | – |
| 272 | – | – | CC/C(=C(/c1ccc(/C=C/C(=O)O)cc1)c1cc2cn[nH]c2cc1C)c1ccccc1 | 468 | 84 | – | – | – |
| 0.8 | – | 18000 | CC/C(=C(/c1ccc(/C=C/C(=O)O)cc1)c1ccc2[nH]ncc2c1Cl)c1ccccc1 | 1.6 | – | – | 93 | – |
| 384 | – | – | CC/C(=C(/c1ccc(/C=C/C(=O)O)cc1)c1cc2cn[nH]c2cn1)c1ccccc1 | 442 | 88 | – | – | – |
| 116 | – | – | CC/C(=C(/c1ccc(/C=C/C(=O)O)cc1)c1cnc2[nH]ncc2c1)c1ccccc1 | 302 | 93 | – | – | – |
| 54 | – | – | CC/C(=C(/c1ccc(/C=C/C(=O)O)cc1)c1cc2cn[nH]c2cc1Cl)c1ccccc1 | 137 | 87 | – | – | – |
| 0.3 | 0.012 | 1800 | O=C(O)/C=C/c1ccc(/C(=C(\c2ccncc2Cl)C2CCC2)c2ccc3[nH]nc(F)c3c2)cc1 | 0.8 | – | 74 | 90 | – |
| – | 0.011 | – | CC/C(=C(/c1ccc(/C=C/C(=O)O)cc1)c1ccc2[nH]ncc2c1)c1ccc(F)cc1Cl [BRILANESTRANT] | 2.5 | – | 79 | 90 | – |
| 1.1 | – | 14000 | CC/C(=C(/c1ccc(/C=C/C(=O)O)cc1)c1ccc2[nH]nc(F)c2c1)c1ccccc1 | 5 | – | – | 90 | – |
| 4.6 | – | – | CCC/C(=C(/c1ccc(/C=C/C(=O)O)cc1)c1ccc2[nH]ncc2c1)c1ccccc1 | 11 | – | – | 92 | – |
| 0.9 | – | 8200 | CC/C(=C(/c1ccc(/C=C/C(=O)O)cc1)c1ccc2[nH]ncc2c1F)c1ccccc1 | 3 | – | – | 89 | – |
| 4.7 | – | – | O=C(O)/C=C/c1ccc(/C(=C(\c2ccccc2)C(F)F)c2ccc3[nH]ncc3c2)cc1 | 14 | – | – | 91 | – |
| 64 | – | – | CC/C(=C(/c1ccc(/C=C/C(=O)O)cc1)c1cc2cn[nH]c2cc1F)c1ccccc1 | 47 | 96 | – | – | – |
| 4.3 | – | – | CC(C)/C(=C(/c1ccc(/C=C/C(=O)O)cc1)c1ccc2[nH]ncc2c1)c1ccccc1 | 4 | – | – | 91 | – |

Continued, compound first:

| Structure (SMILES) | EC50 (MCF7 [2]) [nM] | fraction unbound [4] | AUC [5] [ng·h/mL] | IC50 (MCF7 [1]) [nM] | Emax (MCF7 [3]) [%] | inhibition (INH) (Rattus norvegicus) [%] | Emax (MCF7 [6]) [%] | Activity (MCF7 [7]) |
| --- | --- | --- | --- | --- | --- | --- | --- | --- |
| N#Cc1ccc(/C(=C(\c2ccc(/C=C/C(=O)O)cc2)c2ccc3[nH]nc(F)c3c2)C2CCC2)c(Cl)c1 | 0.3 | 0.006 | 7800 | 0.7 | – | 85 | 93 | – |
| N#Cc1cc(Cl)ccc1/C(=C(\c1ccc(/C=C/C(=O)O)cc1)c1ccc2[nH]nc(F)c2c1)C1CCC1 | 0.3 | 0.007 | 3700 | 0.7 | – | 87 | 94 | – |
| O=C(O)/C=C/c1ccc(/C(=C(\c2ncc(Cl)cc2Cl)C2CCC2)c2ccc3[nH]nc(F)c3c2)cc1 | 0.8 | 0.011 | 15600 | 3.5 | – | 80 | 91 | – |
| Cc1cccnc1/C(=C(\c1ccc(/C=C/C(=O)O)cc1)c1ccc2[nH]nc(F)c2c1)C1CCC1 | 0.8 | – | 190 | 4.2 | – | – | 88 | – |
| N#Cc1cc(Cl)cnc1/C(=C(\c1ccc(/C=C/C(=O)O)cc1)c1ccc2[nH]nc(F)c2c1)C1CCC1 | 0.4 | – | 250 | 1.1 | – | – | 93 | – |
| O=C(O)/C=C/c1ccc(/C(=C(\c2ncccc2Cl)C2CCC2)c2ccc3[nH]nc(F)c3c2)cc1 | 0.3 | 0.032 | 900 | 1.2 | – | 83 | 90 | – |
| COc1ccc(/C(=C(\c2ccc(/C=C/C(=O)O)cc2)c2ccc3[nH]nc(F)c3c2)C2CCC2)c(C#N)c1 | 0.3 | 0.004 | 2000 | 0.5 | – | 82 | 94 | – |
| CS(=O)(=O)c1ccc(/C(=C(\c2ccc(/C=C/C(=O)O)cc2)c2ccc3[nH]nc(F)c3c2)C2CCC2)c(Cl)c1 | 0.9 | – | 140 | 2.3 | – | 29 | 91 | – |
| N#Cc1cc(C(F)(F)F)ccc1/C(=C(\c1ccc(/C=C/C(=O)O)cc1)c1ccc2[nH]nc(F)c2c1)C1CCC1 | 0.4 | 0.014 | 14600 | 1.2 | – | 75 | 94 | Active |
| N#Cc1cnccc1/C(=C(\c1ccc(/C=C/C(=O)O)cc1)c1ccc2[nH]nc(F)c2c1)C1CCC1 | 1.1 | 0.1 | 70 | 3.8 | – | 22 | 92 | – |
| O=C(O)/C=C/c1ccc(/C(=C(\c2ncccc2C(F)(F)F)C2CCC2)c2ccc3[nH]nc(F)c3c2)cc1 | 0.3 | 0.048 | 690 | 1.1 | – | – | 89 | – |
| O=C(O)/C=C/c1ccc(/C(=C(\c2ncc(C(F)(F)F)cc2Cl)C2CCC2)c2ccc3[nH]nc(F)c3c2)cc1 | 1.3 | 0.014 | 24300 | 4.4 | – | 77 | 94 | Active |
| CS(=O)(=O)c1cc(Cl)ccc1/C(=C(\c1ccc(/C=C/C(=O)O)cc1)c1ccc2[nH]nc(F)c2c1)C1CCC1 | 0.3 | 0.035 | 200 | 0.3 | – | 94 | 91 | – |
| N#Cc1cc(F)ccc1/C(=C(\c1ccc(/C=C/C(=O)O)cc1)c1ccc2[nH]nc(F)c2c1)C1CCC1 | 0.3 | 0.021 | 760 | 1.2 | – | 57 | 92 | – |
